Our source for the mass increment values is article PMC1933457, “Nitroimidazole Action in Entamoeba histolytica: A Central Role for Thioredoxin Reductase” (PLoS Biology, 2007).

In one assay the target is T1, recEh TrxR (Entamoeba histolytica, UniProt C4LW95).
T1 construct: gene EHI_155440; C-terminal His6 tag, pET17b, E. coli BL21(DE3), Ni-NTA; C-terminal native peptide 292-314
T1 sequence (C4LW95 1-314): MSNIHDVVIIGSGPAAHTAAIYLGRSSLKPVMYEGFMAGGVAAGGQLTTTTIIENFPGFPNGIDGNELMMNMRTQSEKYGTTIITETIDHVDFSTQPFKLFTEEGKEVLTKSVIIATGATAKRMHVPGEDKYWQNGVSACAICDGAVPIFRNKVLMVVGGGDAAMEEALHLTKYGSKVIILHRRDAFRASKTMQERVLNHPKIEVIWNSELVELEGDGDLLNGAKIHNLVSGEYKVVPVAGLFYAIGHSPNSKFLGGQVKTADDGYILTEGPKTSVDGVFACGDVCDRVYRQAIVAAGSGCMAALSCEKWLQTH
The assay is described as follows: intact-protein LC-ESI-QTOF-MS after expression with drug. It counts as cell-based. The note with it: covalent; reduced metabolite; drug present during expression in E. coli.

The target in the next assay is T2, recEh Trx (Entamoeba histolytica, UniProt C4LYR0).
T2 construct: gene EHI_004490; C-terminal His6 tag, Met1 removed, one disulfide, 12,322 Da; pET17b, E. coli BL21(DE3), Ni-NTA
T2 sequence (C4LYR0 2-103): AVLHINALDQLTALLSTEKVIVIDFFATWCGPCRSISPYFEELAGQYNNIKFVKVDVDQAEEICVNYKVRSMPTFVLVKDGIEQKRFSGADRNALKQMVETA
Described as above. It counts as cell-based. The note with it: covalent; reduced metabolite; drug present during expression in E. coli.

Consider tinidazole [compound 2], for which the mass increment at recEh TrxR and on recEh Trx was 217 Da in each case.
